The supplement of paper PMC10307832

What was measured:
Test in all cases: relative viability (nuclei count vs DMSO), 5 days (fraction); higher = more cells survive
Etoposide + Lapatinib = compound: COc1cc([C@@H]2c3cc4c(cc3[C@@H](O[C@@H]3O[C@@H]5CO[C@@H](C)O[C@H]5[C@H](O)[C@H]3O)[C@H]3COC(=O)[C@H]23)OCO4)cc(OC)c1O [Etoposide] + CS(=O)(=O)CCNCc1ccc(-c2ccc3ncnc(Nc4ccc(OCc5cccc(F)c5)c(Cl)c4)c3c2)o1 [Lapatinib] (partner 2 µM)
Outline: (§1)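 Relative viability is defined as nuclei in treated wells over nuclei in vehicle wells. Duplicate plates were run and medians reported. Lung cancer cell lines in 1536-well plates were dosed by pin tool one day after seeding, with one drug or with a fixed anchor-drug dose plus five library-drug doses (not always all listed) in √10 steps, and nuclei were counted after 5 days.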

Etoposide + AZD7762 = compound: COc1cc([C@@H]2c3cc4c(cc3[C@@H](O[C@@H]3O[C@@H]5CO[C@@H](C)O[C@H]5[C@H](O)[C@H]3O)[C@H]3COC(=O)[C@H]23)OCO4)cc(OC)c1O [Etoposide] + NC(=O)Nc1cc(-c2cccc(F)c2)sc1C(=O)N[C@H]1CCCNC1 [AZD7762] (partner 0.2 µM)
Outline: as §1

Bleomycin + OSI-027 = compound: CC1=C(N=C(N=C1N)[C@H](CC(=O)N)NC[C@@H](C(=O)N)N)C(=O)N[C@@H]([C@H](C2=CN=CN2)OC3C(C(C(C(O3)CO)O)O)OC4C(C(C(C(O4)CO)O)OC(=O)N)O)C(=O)N[C@H](C)[C@H]([C@H](C)C(=O)N[C@@H]([C@@H](C)O)C(=O)NCCC5=NC(=CS5)C6=NC(=CS6)C(=O)NCCC[S+](C)C)O [Bleomycin] + COc1cccc2cc(-c3nc([C@H]4CC[C@H](C(=O)O)CC4)n4ncnc(N)c34)[nH]c12 [OSI-027] (partner 0.5 µM); conditions: main component drawn
Outline: as §1

Etoposide + Luminespib = compound: COc1cc([C@@H]2c3cc4c(cc3[C@@H](O[C@@H]3O[C@@H]5CO[C@@H](C)O[C@H]5[C@H](O)[C@H]3O)[C@H]3COC(=O)[C@H]23)OCO4)cc(OC)c1O [Etoposide] + CCNC(=O)c1noc(-c2cc(C(C)C)c(O)cc2O)c1-c1ccc(CN2CCOCC2)cc1 [Luminespib] (partner 0.01 µM)
Outline: as §1

Cell Line | relative viability (Etoposide + Lapatinib; first compound 0.01 µM) | relative viability (Etoposide + Lapatinib; first compound 0.03162 µM) | relative viability (Etoposide + Lapatinib; first compound 0.1 µM) | relative viability (Etoposide + Lapatinib; first compound 0.3162 µM) | relative viability (Etoposide + Lapatinib; first compound 1 µM) | relative viability (Etoposide + AZD7762; first compound 0.01 µM) | relative viability (Etoposide + AZD7762; first compound 0.03162 µM) | relative viability (Etoposide + AZD7762; first compound 0.1 µM) | relative viability (Etoposide + AZD7762; first compound 0.3162 µM) | relative viability (Etoposide + AZD7762; first compound 1 µM) | relative viability (Bleomycin + OSI-027; first compound 0.01 µM) | relative viability (Bleomycin + OSI-027; first compound 0.03162 µM) | relative viability (Bleomycin + OSI-027; first compound 0.1 µM) | relative viability (Bleomycin + OSI-027; first compound 0.3162 µM) | relative viability (Bleomycin + OSI-027; first compound 1 µM) | relative viability (Etoposide + Luminespib; first compound 0.01 µM) | relative viability (Etoposide + Luminespib; first compound 0.03162 µM) | relative viability (Etoposide + Luminespib; first compound 0.1 µM) | relative viability (Etoposide + Luminespib; first compound 0.3162 µM) | relative viability (Etoposide + Luminespib; first compound 1 µM)
NCI-H647 | 1.05 | 0.984 | 0.797 | 0.185 | 0.0906 | 0.417 | 0.323 | 0.307 | 0.165 | 0.0849 | 0.195 | 0.184 | 0.184 | 0.0871 | 0.0587 | 0.134 | 0.164 | 0.164 | 0.134 | 0.0949
A-427 | 1.04 | 1.06 | 0.807 | 0.604 | 0.196 | 0.713 | 0.741 | 0.569 | 0.473 | 0.286 | 0.332 | 0.439 | 0.34 | 0.187 | 0.144 | 0.832 | 1.02 | 0.61 | 0.382 | 0.182
EMC-BAC-2 | 0.855 | 0.822 | 0.572 | 0.344 | 0.215 | 1.06 | 1.11 | 0.688 | 0.639 | 0.334 | 0.298 | 0.326 | 0.304 | 0.257 | 0.159 | 0.895 | 0.932 | 0.651 | 0.297 | 0.248
NCI-H460 | 0.726 | 0.732 | 0.394 | 0.0299 | 0.0144 | 0.61 | 0.704 | 0.407 | 0.0776 | 0.0538 | 0.373 | 0.334 | 0.165 | 0.038 | 0.0308 | 0.0412 | 0.0382 | 0.0395 | 0.0281 | 0.0302
LCLC-103H |  |  |  |  |  | 0.756 | 0.787 | 0.597 | 0.742 | 0.608 | 0.39 | 0.451 | 0.468 | 0.34 | 0.219 | 0.924 | 1.17 | 0.954 | 0.832 | 0.541
HCC-827 | 0.172 | 0.262 | 0.205 | 0.208 | 0.134 | 0.206 | 0.223 | 0.185 | 0.167 | 0.177 | 0.71 | 0.81 | 0.6 | 0.562 | 0.193 | 0.283 | 0.795 | 0.204 | 0.315 | 0.175
NCI-H1355 | 1.09 | 1.03 | 0.472 | 0.775 | 0.248 | 0.746 | 0.862 | 0.501 | 0.586 | 0.305 | 0.459 | 0.416 | 0.427 | 0.258 | 0.194 | 0.635 | 0.765 | 0.403 | 0.338 | 0.201
NCI-H1734 | 0.971 | 1.05 | 0.612 | 0.515 | 0.273 | 0.561 | 0.538 | 0.333 | 0.306 | 0.19 | 0.565 | 0.544 | 0.465 | 0.254 | 0.226 | 0.226 | 0.192 | 0.182 | 0.185 | 0.168
HARA | 0.591 | 0.811 | 0.675 | 0.56 | 0.134 | 0.436 | 0.347 | 0.236 | 0.301 | 0.291 | 0.401 | 0.505 | 0.454 | 0.3 | 0.176 | 0.403 | 0.999 | 0.682 | 0.226 | 0.106
HCC-15 | 0.849 | 0.832 | 0.846 | 0.329 | 0.152 | 1.2 | 1.34 | 1.32 | 1.01 | 0.777 | 0.645 | 0.612 | 0.533 | 0.182 | 0.152 | 0.473 | 0.303 | 0.366 | 0.15 | 0.178
LCLC-97TM1 |  | 1.23 | 0.465 | 0.23 | 0.124 | 0.226 | 0.323 | 0.173 | 0.15 | 0.099 | 0.444 | 0.403 | 0.177 | 0.196 | 0.108 | 0.788 | 0.78 | 0.465 | 0.175 | 0.154
SK-LU-1 | 0.752 | 0.949 | 0.375 | 0.261 | 0.202 |  |  |  |  |  | 0.338 | 0.417 | 0.366 | 0.272 | 0.206 | 0.237 | 0.243 | 0.189 | 0.191 | 0.183
NCI-H1651 | 0.753 | 0.774 | 0.614 | 0.199 | 0.121 | 0.476 | 0.508 | 0.287 | 0.274 | 0.186 | 0.671 | 0.524 | 0.551 | 0.323 | 0.186 | 0.815 | 0.724 | 0.681 | 0.308 | 0.209
NCI-H2170 | 0.294 | 0.264 |  | 0.292 | 0.23 | 0.721 | 0.882 |  | 0.881 | 0.482 | 0.598 | 0.764 | 0.767 | 0.52 | 0.395 | 0.714 | 0.874 | 0.273 | 0.585 | 0.452
NCI-H2023 | 0.886 | 0.895 | 0.293 | 0.372 | 0.0709 |  |  |  |  |  | 0.297 | 0.328 | 0.284 | 0.183 | 0.111 | 0.709 | 0.829 | 0.708 | 0.195 | 0.112
NCI-H1703 |  | 1.14 | 0.866 | 0.376 | 0.271 | 0.149 | 0.126 |  | 0.121 | 0.114 |  |  |  |  |  |  |  |  |  | 
